Results published in patent US6458834B2, “Pentacyclic triterpenes” (Micro Flo Company, priority 1998, dated 2002).
Where two headings read alike, the source gives them in different places.

Experiments:
human leucocyte elastase = biological target: T1, human leucocyte elastase (Homo sapiens, UniProt P08246); assay: Human leucocyte elastase (HLE) inhibition, MeO-Suc-Ala-Ala-Pro-Val-pNA substrate; assay type: biochemical
T1 construct: purchased Elastin Products
T1 sequence (P08246 30-267): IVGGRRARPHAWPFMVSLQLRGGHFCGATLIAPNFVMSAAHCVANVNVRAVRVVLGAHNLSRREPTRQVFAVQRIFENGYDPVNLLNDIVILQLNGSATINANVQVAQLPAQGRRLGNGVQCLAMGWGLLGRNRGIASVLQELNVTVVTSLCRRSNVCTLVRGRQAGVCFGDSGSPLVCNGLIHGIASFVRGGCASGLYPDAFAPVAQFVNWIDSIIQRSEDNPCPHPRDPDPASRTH
Description: Stock solutions were mixed to yield a reaction mixture consisting of 0.5 mM MeO-Suc-Ala-Ala-Pro-Val-pNA (Sigma) and […] human leucocyte elastase (Elastin Products) in 0.1 M Tris, 0.5 M NaCl and 3% DMSO (v/v) at a pH of 7.5. Test compounds were solubilized in DMSO. Equal volumes of enzyme and inhibitor were mixed and allowed to incubate for 15 minutes at room temperature. The reaction was started by the addition of a third equal volume containing substrate. Reactions were carried out in microliter plates.

plasmin = plasmin (Homo sapiens, UniProt P00747); assay: plasmin assay; assay type: biochemical; conditions: for inhibition at 22 µM: measured at 22 μM
Source text: (§1) Thus, PTs appear to bind non-covalently to hydrophobic domains of enzymes and either block an access to the enzyme active site or cause conformational change, both resulting in the enzyme's inability to perform its function.

urokinase = urokinase (Homo sapiens, UniProt P00749); assay: urokinase assay; assay type: biochemical; conditions: for inhibition at 22 µM: measured at 22 μM
Source text: as §1

thrombin = thrombin (Homo sapiens, UniProt P00734); assay: thrombin assay; assay type: biochemical
Source text: as §1

trypsin = biological target: T2, trypsin (Bos taurus, UniProt P00760); assay: trypsin assay; assay type: biochemical
T2 construct: gene PRSS1
T2 sequence (P00760 24-246): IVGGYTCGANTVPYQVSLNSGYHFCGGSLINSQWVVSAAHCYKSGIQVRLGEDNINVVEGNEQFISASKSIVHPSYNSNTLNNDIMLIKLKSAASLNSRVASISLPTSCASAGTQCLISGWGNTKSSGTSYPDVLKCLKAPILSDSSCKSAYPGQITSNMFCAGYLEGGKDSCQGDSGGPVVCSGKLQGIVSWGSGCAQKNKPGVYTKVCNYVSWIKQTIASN
Source text: as §1

mites = conditions: cited from earlier work
[1] = 0.1 M Tris, 0.5 M NaCl, 3% DMSO, pH 7.5, 15 min preincubation at room temperature, read-out: IC50

plasmin, sequence (P00747 581-810 limits assumed, species assumed): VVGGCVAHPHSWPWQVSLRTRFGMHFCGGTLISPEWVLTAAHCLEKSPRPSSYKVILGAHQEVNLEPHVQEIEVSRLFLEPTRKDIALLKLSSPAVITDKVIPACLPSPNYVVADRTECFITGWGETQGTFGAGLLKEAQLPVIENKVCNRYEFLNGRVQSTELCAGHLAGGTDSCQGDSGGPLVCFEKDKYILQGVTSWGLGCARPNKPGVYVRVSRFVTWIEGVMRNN
plasmin, sequence (P00747 97-580 partner limits assumed, species assumed): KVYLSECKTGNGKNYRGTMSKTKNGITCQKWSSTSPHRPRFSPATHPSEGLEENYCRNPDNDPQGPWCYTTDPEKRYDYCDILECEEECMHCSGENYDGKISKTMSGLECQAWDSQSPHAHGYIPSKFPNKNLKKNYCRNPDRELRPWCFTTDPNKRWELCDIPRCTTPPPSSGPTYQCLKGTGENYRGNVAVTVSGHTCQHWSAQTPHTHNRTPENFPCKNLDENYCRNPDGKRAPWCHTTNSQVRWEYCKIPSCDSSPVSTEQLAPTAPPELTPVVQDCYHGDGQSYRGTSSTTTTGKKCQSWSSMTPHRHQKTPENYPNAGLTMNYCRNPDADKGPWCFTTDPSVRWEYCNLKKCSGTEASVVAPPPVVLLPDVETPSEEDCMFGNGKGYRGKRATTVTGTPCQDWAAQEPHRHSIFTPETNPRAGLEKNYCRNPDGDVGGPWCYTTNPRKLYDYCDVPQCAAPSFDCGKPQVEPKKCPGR

Work on C=C(C)C1CCC2(C(=O)O)CCC3(C)C(CCC4C5(C)CCC(OC(C)=O)C(C)(C)C5CCC43C)C12 (stereo not shown) [Example 11, Acetylbetulinic acid] yielded an IC50 (human leucocyte elastase) of 7 µM.
In the case of C=C(C)[C@@H]1CC[C@]2(COC(=O)CCC(=O)O)CC[C@]3(C)[C@H](CC[C@@H]4[C@@]5(C)CC[C@H](O)C(C)(C)[C@@H]5CC[C@]43C)[C@@H]12 [Example 8, 28-Succinylbetulin], the IC50 (human leucocyte elastase; [1]) is reported as 6.3 µM.
CC1(C)CC[C@]2(C)CC[C@]3(C)C(=CC[C@@H]4[C@@]5(C)CC[C@H](O)C(C)(C)[C@@H]5CC[C@]43C)[C@@H]2C1 [Example 15, β-Amyrin] showed an IC50 (human leucocyte elastase; [1]) of 5.4 µM.
Molecule CC1(C)CC[C@]2(C(=O)O)CC[C@]3(C)C(=CC[C@@H]4[C@@]5(C)CC[C@H](O)[C@@](C)(CO)[C@@H]5CC[C@]43C)[C@@H]2C1 [Example 23, Hederagenin] has an IC50 (human leucocyte elastase) of 16.8 µM.
C=C(C)C1CCC2(C(=O)O)CCC3(C)C(CCC4C5(C)CCC(OS(C)(=O)=O)C(C)(C)C5CCC43C)C12 (stereo not shown) [Example 13, Methanesulfonylbetulinic acid] gave an IC50 (human leucocyte elastase) of 11.2 µM and a melting point of 210 to 212 °C.
In the case of CC1(C)CC[C@]2(C(=O)O)CC[C@]3(C)C(=CC[C@@H]4[C@@]5(C)CC[C@H](O)C(C)(C)[C@@H]5CC[C@]43C)[C@@H]2C1 [Example 20, Oleanolic acid], the inhibition at 22 µM (plasmin) is reported as 25% and the inhibition at 22 µM (urokinase) is reported as 40%.
In the case of C=C(C)[C@@H]1CC[C@]2(C(=O)OC)CC[C@]3(C)[C@H](CC[C@@H]4[C@@]5(C)CC[C@H](O)C(C)(C)[C@@H]5CC[C@]43C)[C@@H]12 [Example 10, Methyl ester of betulinic acid], the IC50 (human leucocyte elastase; [1]) is reported as 5.7 µM.
COC(=O)[C@]12CCC(C)(C)C[C@H]1C1=CC[C@@H]3[C@@]4(C)CC[C@H](O)C(C)(C)[C@@H]4CC[C@@]3(C)[C@]1(C)CC2 [Example 21, Oleanolic acid, Me ester] gave an IC50 (human leucocyte elastase; [1]) of 8.5 µM.
Work on COC(=O)[C@]12CC[C@@H](C)[C@H](C)[C@H]1C1=CC[C@@H]3[C@@]4(C)CC[C@H](O)C(C)(C)[C@@H]4CC[C@@]3(C)[C@]1(C)CC2 [Example 18, Ursolic acid, Me ester] yielded an IC50 (human leucocyte elastase; [1]) of 4.9 µM.
Molecule C=C(C)[C@@H]1CC[C@]2(C)CC[C@]3(C)[C@H](CC[C@@H]4[C@@]5(C)CC[C@H](O)C(C)(C)[C@@H]5CC[C@]43C)[C@@H]12 [Example 5, Lupeol] has an IC50 (human leucocyte elastase) of 8.4 µM.
Molecule C=C(C)[C@@H]1CC[C@]2(CO)CC[C@]3(C)[C@H](CC[C@@H]4[C@@]5(C)CC[C@H](O)C(C)(C)[C@@H]5CC[C@]43C)[C@@H]12 [Example 7, Betulin] has an IC50 (human leucocyte elastase) of 5 µM.
With CC1(C)CC[C@]2(C(=O)O)[C@H](O)C[C@]3(C)C(=CC[C@@H]4[C@@]5(C)CC[C@H](O)[C@@](C)(CO)[C@@H]5CC[C@]43C)[C@@H]2C1 [Example 24, Caulophyllogenin] the “inhibition of HLE at a single concentration” value (human leucocyte elastase; @ 21°) was 0% @ 21°.
In the case of C=C(C)[C@@H]1CC[C@]2(C(=O)O)CC[C@]3(C)[C@H](CC[C@@H]4[C@@]5(C)CC[C@H](O)C(C)(C)[C@@H]5CC[C@]43C)[C@@H]12 [Example 9, Betulinic acid], the IC50 (human leucocyte elastase; [1]) is reported as 3.3 µM, the IC50 (plasmin) is reported as 6.2 µM and the IC50 (urokinase) is reported as 5 µM. It also gave an IC50 (thrombin) of 2.3 µM and an IC50 (trypsin) of 8.5 µM.
Lupeol acetate [Example 6] showed an IC50 (human leucocyte elastase; [1]) of 14.9 µM.
For C[C@H]1[C@H](C)CC[C@]2(CO)CC[C@]3(C)C(=CC[C@@H]4[C@@]5(C)CC[C@H](O)C(C)(C)[C@@H]5CC[C@]43C)[C@H]12 [Example 16, Uvaol], the IC50 (human leucocyte elastase) was 4.5 µM.
C=C(C)[C@@H]1CC[C@]2(C(=O)O)CC[C@]3(C)[C@H](CC[C@@H]4[C@@]5(C)CCC(=O)C(C)(C)[C@@H]5CC[C@]43C)[C@@H]12 [Example 12, 3-Ketobetulinic acid] gave an IC50 (human leucocyte elastase; [1]) of 11 µM.
With C=C(C)C1CCC2(C(=O)OC)CCC3(C)C(CCC4C5(C)CCC(OS(C)(=O)=O)C(C)(C)C5CCC43C)C12 (stereo not shown) [Example 14, Methyl ester of 3-methanesulfonylbetulinic acid] the IC50 (human leucocyte elastase; [1]) was 7.3 µM.
C[C@H]1[C@H](C)CC[C@]2(C(=O)O)CC[C@]3(C)C(=CC[C@@H]4[C@@]5(C)CC[C@H](O)C(C)(C)[C@@H]5CC[C@]43C)[C@H]12 [Example 17, Ursolic acid] gave an IC50 (human leucocyte elastase) of 7.7 µM, an inhibition at 22 µM (plasmin) of 43% and an inhibition at 22 µM (urokinase) of 83%. For the same molecule, the “effects towards the mites and their survival” value (mites) was “toxicity and feeding deterrent effects” and the “reduction of ingestion time on diet containing ursolic acid” value (mites; diet containing ursolic acid) was “about 30%”.
